Reference: patent publication US20070010458A1, “Drugs for the arthritis treatment” (priority 2002, published 2007)

Assays:
[1] = test system: TGFβ1 production in cellular chondrocyte cultures; assay: Stimulation of TGFβ1 production in chondrocyte cultures (CCL-64 growth inhibition bioassay of conditioned medium); assay type: cell-based; conditions: calf chondrocyte primary cultures, compound 10^−5 M, 24 hours; untreated control = 100
Method: The primary cultures have been kept in a DMEM culture medium (Dulbecco's modified Eagle medium) (high glucose) containing bovine fetal serum (10% vol.) and antibiotics at 37° C. and in air/CO2 atmosphere (95%/5% vol.) until reaching the culture confluence. A cell sample is kept as a control and not treated with the tested compounds.
At the end the cells have been washed 3 times with a medium free from serum and added with BSA (bovine serum albumin, 200 μg/ml) for 5, 30 and 60 minutes respectively and then incubated in a medium devoid of serum (1 ml) for further 6 hours. The conditioned medium has been collected, centrifuged and kept at −70° C. until the use.
Before the experiment, 0.5 ml of cellular culture supernatant have been acidified with HCl (0.1 ml, 1 N) and incubated at room temperature for 10 min, then neutralized with NaOH/HEPES (0.1 ml NaOH 1.2N/0.5 M).
CCL-64 cellular cultures lines in a proliferative state have been prepared as described in Jennings J. C., J. Cell. Physiol.
At the twentieth hour ^3H-timidine (0.5 μCi/ml), a cellular proliferation marker, which is incorporated in the DNA of the new cells has been added to the cultures. The cultures have then been incubated for 4 hours.
At the end the cells have been cold fixed (5° C.) with trichloroacetic acid 5% v/v, washed with the same solution and dissolved in NaOH (0.1 N). […] From the amount of incorporated timidine it is shown the amount of TGF-β1. The data reported in Table 1 are expressed in percentage of TGFβ1 produced in the samples treated with the tested compounds, compared with the untreated control.

[2] = test system: IL-6 release in mouse spleen lymphocytes; assay: IL-6 release in mouse spleen lymphocytes (in vitro, ELISA); assay type: cell-based; conditions: 10 μg/ml endotoxin, compound 50 μM, 24 hours, placebo = 100
Method: (§1) Spleen lymphocytes were prepared as it follows. Mice were killed by an overdose of ether, and spleens were collected and maintained in a sterile RPMI medium (Sigma-Aldrich) containing 0.5% (vol/vol) L-glutamine and 0.5% (vol/vol) sterile endotoxin-free fetal calf serum (FCS). The spleens were opened and the content (whole cells) collected and diluted with RPMI.
(§2) After repeated washings, cells were suspended in 10 ml of RPMI containing 1% (vol/vol) streptomycin and 1% (vol/vol) penicillin. The suspension was then incubated at 37° C. for 24 hours, in an O2/CO2 atmosphere (95%/5% v/v). Monocytes were eliminated by adhesion, and lysis of red cells was obtained by suspension in a solution 0.15 mol/liter NH4Cl and 1 mmol/liter KHCO3. The resulting lymphocytes were resuspended in RPMI-FCS, incubated for 30 minutes at 37° C. with anti-FAS, anti-FASL, or anti-IL2 receptor monoclonal antibodies, and then washed twice with RPMI-FCS. Cells were then incubated with the FITC-conjugated secondary antibody for 30 mins at 4° C., washed twice, and resuspended in PBS/formaldehyde (0.5%). Control samples were treated with the FITC-conjugated secondary antibody only. Stained cells were analysed on a flow cytofluorimeter. Cells were gated using forward vs side scatter to exclude dead cells and debris.
(§3) Cells were transferred in plate and then 10 μg/ml endotoxin and each of the following compounds at a concentration of 50 μM added: • Placebo (no compound added); • Flurbiprofen; • NO-Flurbiprofen; the compound was prepared as described in ex. F1, above; • Indomethacin; • NO-indomethacin; the compound was prepared as described in the example on page 45 of WO 98/09948; • then it was incubated for 24 hours • IL-6 and TGF-β released in cell supernatant was measured by ELISA assay, taking as 100% release that of placebo group.

type II collagen mRNA = assay: Type II collagen mRNA steady-state levels in human articular chondrocytes; assay type: cell-based; conditions: human articular chondrocytes in hypoxia (5% v/v O2), with or without IL-1β, compound 10^−5M, 48 h
Method: The steady-state levels of mRNA for type II collagen and TGF-β type II receptor (TβRII) was evaluated in human articular chondrocytes (HAC), cultured in hypoxia (5% v/v O2). The cells were treated or not with interleukin-1β (IL-1β) an agent favouring OA pathology, and NO-NSAIDs, or the corresponding NSAIDs at 10^−5M for 48 h.

human chondrocytes = assay: Cell proliferation of TNFα-treated human chondrocytes ([3H]-thymidine incorporation); assay type: cell-based; conditions: TNFα 80 ng/ml, compound 100 μM, 24 hours, control without TNFα = 100, vehicle + TNFα = 50
Method: (§4) Human chondrocytes were isolated by collagenase digestion from knee cartilage collected from patients undergoing knee replacement surgery. Only primary culture was used to avoid phenotype change of human chondrocytes. TNFα (80 ng/ml) was added to all but control cells. Test compounds were dissolved at a concentration 0.02% (w/v) in DMSO (vehicle).
(§5) The test compounds were incubated with cells at a 100 μM concentration for 24 hours.
Cell proliferation was determined by measuring [^3H]-thymidine incorporated into newly synthesized DNA. Cell viability was assessed by MTS assay kit.

[3] = test system: IL-6 release in human monocytes; assay: IL-6 release in human monocytes (ex-vivo study after oral subacute treatment); conditions: healthy subjects, 100 mg twice a day oral for seven days; monocytes 4 hours after last treatment, 10 μg/ml endotoxin 24 hours, ELISA; placebo = 100
Method: Twenty-four healthy subjects of both sexes were enrolled and randomised into three groups of 8 subjects each. Each group was administered as it follows: • placebo: vehicle (0.5% aqueous suspension of carboxymethyl cellulose); • flurbiprofen: 100 mg twice a day; • NO-flurbiprofen: 100 mg twice a day; the compound was prepared as described in example F1. The treatment lasted seven consecutive days (oral subacute treatment).
Monocytes from whole blood samples obtained before and 4 hours after the last treatment were prepared. Monocytes were extracted by positive selection using paramagnetic beads loaded with anti-CD11 antibody. Cells were then incubated with 10 μg/ml endotoxin for 24 hours, and IL-6 released in cell supernatant measured by ELISA assay.
Results are given as % in the confront of IL-6 release obtained in the placebo group.

[4] = test system: TGF-β release in mouse spleen lymphocytes; assay: TGF-β release in mouse spleen lymphocytes (in vitro, ELISA); assay type: cell-based; conditions: 10 μg/ml endotoxin, compound 50 μM, 24 hours, placebo = 100
Method: as §1, §2, §3

[5] = test system: proteoglycan synthesis in human chondrocytes; assay: Proteoglycan synthesis in TNFα-treated human chondrocytes ([35S]-sulfate incorporation); assay type: cell-based; conditions: TNFα 80 ng/ml, compound 100 μM, 24 hours, control without TNFα = 100, vehicle + TNFα = 22
Method: as §4, §5
Proteoglycan synthesis was determined by [^35S]-sulfate incorporation. Cells and supernatant were extracted with 4M guanidinium chloride and purified by Sephadex colums chromatography. The amount of [^35S]-sulfate was measured by liquid scintillation counter. Results were normalized by the amount of Dna in the sample and expressed as CPM/μg DNA (CPM=count per minute).

[6] = Hepatic tolerability in rats (plasma AST, ALT, bilirubin); assay type: in vivo; conditions: i.p., NO-paracetamol 1.4 g/Kg or paracetamol 1.16 g/Kg, plasma 6 hours after administration, % of control group (100%)
Method: Groups of No. 10 rats have been treated i.p. with NO-paracetamol (1.4 g/Kg i.p.) or with paracetamol (1.16 g/Kg) or with the carrier (0.9% w/v NaCl containing 20% v/v di tween-20) (control group).
After 6 hours from the administration, the animals have been sacrificed, the blood has been collected and the plasma analyzed to determine the aspartate aminotransferase (AST) and alanine aminotransferase (ALT) and bilirubin concentrations. The results are reported in Table 2 and have been expressed in pecentage with respect to the values obtained in the control group (100%).

Compound: CC(=O)Oc1ccccc1C(=O)O [Aspirin]
- % of produced TGFβ1 [1]: 150%

Compound: CC(C(=O)O)c1ccc(-c2ccccc2)c(F)c1 (stereo not drawn) [Flurbiprofen]
- IL-6 release % in the confront of placebo [2]: 100%
- Increase of type II collagen mRNA levels (type II collagen mRNA): no significant effect
- Cell proliferation % in the confront of control (human chondrocytes): 53%
- IL-6 release % in the confront of placebo [3]: 100%
- TGF-β release % in the confront of placebo [4]: 115%
- Proteoglycan synthesis % in the confront of control [5]: 26%
- % of produced TGFβ1 [1]: 120%

Compound: CC(C)Cc1ccc(C(C)C(=O)O)cc1 (stereo not drawn) [Ibuprofen]
- Cell proliferation % in the confront of control (human chondrocytes): 48%
- Proteoglycan synthesis % in the confront of control [5]: 24%

Compound: COc1ccc2c(c1)c(CC(=O)O)c(C)n2C(=O)c1ccc(Cl)cc1 [Indomethacin]
- IL-6 release % in the confront of placebo [2]: 90%
- TGF-β release % in the confront of placebo [4]: 70%

Compound: CC(=O)Oc1ccccc1C(=O)Oc1cccc(CO[N+](=O)[O-])c1 [NO-Aspirin, 2-acetyloxybenzoic acid 3-nitrooxymethyl phenyl ester]
- % of produced TGFβ1 [1]: 600%

Compound: O=C(Cc1ccccc1Nc1c(Cl)cccc1Cl)OCCCCO[N+](=O)[O-] [NO-Diclofenac, 2-[(2,6-dichlorophenyl)amino]benzenacetic acid 4-nitrooxybutyl ester]
- % of produced TGFβ1 [1]: 550%

Compound: CC(C(=O)OCCCCO[N+](=O)[O-])c1ccc(-c2ccccc2)c(F)c1 (stereo not drawn) [NO-Flurbiprofen, 2-fluoro-alpha-methyl[1,1′-biphenyl]-4-acetic acid 4-nitrooxybutylester]
- IL-6 release % in the confront of placebo [2]: 10%
- Increase of type II collagen mRNA levels (type II collagen mRNA): more than 100%
- TGF-β release % in the confront of placebo [4]: 150%
- Proteoglycan synthesis % in the confront of control [5]: 70%
- % of produced TGFβ1 [1]: 650%

Compound: CC(=O)Nc1ccc(OC(=O)CCCO[N+](=O)[O-])cc1 [NO-Paracetamol, 4-nitrooxybutanoic acid 4-acetylaminophenylester]
- AST [6]: 160%
- Bilirubin [6]: 136%
- % of produced TGFβ1 [1]: 350%

Compound: COc1ccc2c(c1)c(CC(=O)Oc1cccc(CO[N+](=O)[O-])c1)c(C)n2C(=O)c1ccc(Cl)cc1 [NO-indomethacin, 1-(4-Chlorobenzoyl)-5-methoxy-2-methyl-1H-indole-3-acetic acid 3-(nitrooxymethyl)phenyl ester]
- IL-6 release % in the confront of placebo [2]: 20%
- TGF-β release % in the confront of placebo [4]: 130%

Compound: CC(=O)Nc1ccc(O)cc1 [Paracetamol]
- ALT [6]: 171%
- AST [6]: 330%
- Bilirubin [6]: 200%
